For the series, the target named is α-chymotrypsin (Bos taurus, UniProt P00766). The conditions noted are these: α-chymotrypsin 1 mg/mL, AMP 10 µg/mL, agar well diffusion vs MRSA strain 2468, relative to non-treated sample, mean ± SD, triplicate. On the technique in general: In agar diffusion tests the substance spreads into inoculated agar from a disc or well.

Like-named read-outs stand apart in the source and are kept apart here.

Procedure: The AMP was dissolved in sterile purified water and adjusted to a final concentration of 10 µg/mL. The sensitivity of the AMP to temperatures of 60, 80, and 100 °C as well as autoclaving at 121 °C for 15 and 30 min was evaluated. The sensitivity of the AMP to proteolytic enzymes with different digesting characteristics was studied by incubating with a concentration of 1 mg/mL of proteinase K, trypsin, and α-chymotrypsin (Sigma-Aldrich, Warren, MI, USA). Surfactant compatibility of the AMP was examined by exposing the sample to 1% SDS and 1% Triton X-100 (AppliChem GmbH, Darmstadt, Germany). The propensity of the AMP for acid and base hydrolysis was examined by adjusting the pH of the solution to 1.2, 4.5, 6.8, and 7.4. After incubation, the pH of the AMP solution was neutralized to 7.4 before being assessed for antimicrobial activity. Following all treatments, the antibacterial assay using agar well diffusion against the MRSA strain 2468 was conducted in triplicate. The stability profiles are presented as the percentage of the activity relative to the untreated conditions (mean ± SD) and statistical significance was determined by the Student’s t-test at a p-value < 0.05.

Turning to `CC(C)CC(NC(=O)C(N)CCCCN)C(=O)NC(CC(C)C)C(=O)NC(CCCCN)C(=O)NC(CC(=O)O)C(=O)NC(CC(C)C)C(=O)NC(Cc1ccccc1)C(=O)NC(Cc1c[nH]cn1)C(=O)NC(CC(=O)O)C(=O)NC(CC(N)=O)C(=O)O` (single isomer, unassigned) [NNS4-3 AMP], the “% Residual Activity” value runs as follows: (1 h) 96.65 ± 2.14%; (6 h) 95.15 ± 6.64%; (12 h) 97.06 ± 0.54%.

The values above are taken from publication PMC11350868, “A Novel Bacitracin-like Peptide from Mangrove-Isolated Bacillus paralicheniformis NNS4-3 against MRSA and Its Genomic Insights” (Antibiotics, 2024).
